Experiments:
[1] = biological target: PI3Kδ (Homo sapiens (Human), UniProt O00329); experiment: Activity of selected PI3K inhibitors, Ki (PI3Kδ); format: biochemical
Source text: (§1) The compounds of formula (3) are readily prepared from available starting material using methods that are known in the art. […] Scheme A in that application provides a route by which the thienopyrimidinone portions of compounds of formula (2a) can be prepared, and Schemes B-G provide routes by which the thienopyrimidinone portions of compounds of formula (2b) can be prepared. […] These references also provide methods for determining the activity of these compounds as inhibitors of PI3Kδ; thus those methods are known in the art.

[2] = biological target: PI3Kβ (Homo sapiens (Human), UniProt P42338); experiment: Selectivity of selected PI3K inhibitors (β/δ); format: biochemical; conditions: ratio PI3Kβ relative to PI3Kδ
Source text: as §1

[3] = biological target: PI3Kα (Homo sapiens (Human), UniProt P42336); experiment: Selectivity of selected PI3K inhibitors (α/δ); format: biochemical; conditions: ratio PI3Kα relative to PI3Kδ
Source text: as §1

[4] = biological target: PI3Kγ (Homo sapiens (Human), UniProt P48736); experiment: Selectivity of selected PI3K inhibitors (γ/δ); format: biochemical; conditions: ratio PI3Kγ relative to PI3Kδ
Source text: as §1

[5] = tested on: hepatocytes; conditions: hepatocytes exposed to conditions that generate reactive oxygen species; Kohli et al. 2007; cited from earlier work
[6] = tested on: steatosis development; conditions: diet-induced p85 expression and steatosis; Kohli et al. 2007; cited from earlier work

PI3Kβ, sequence (P42338 whole entry, species assumed): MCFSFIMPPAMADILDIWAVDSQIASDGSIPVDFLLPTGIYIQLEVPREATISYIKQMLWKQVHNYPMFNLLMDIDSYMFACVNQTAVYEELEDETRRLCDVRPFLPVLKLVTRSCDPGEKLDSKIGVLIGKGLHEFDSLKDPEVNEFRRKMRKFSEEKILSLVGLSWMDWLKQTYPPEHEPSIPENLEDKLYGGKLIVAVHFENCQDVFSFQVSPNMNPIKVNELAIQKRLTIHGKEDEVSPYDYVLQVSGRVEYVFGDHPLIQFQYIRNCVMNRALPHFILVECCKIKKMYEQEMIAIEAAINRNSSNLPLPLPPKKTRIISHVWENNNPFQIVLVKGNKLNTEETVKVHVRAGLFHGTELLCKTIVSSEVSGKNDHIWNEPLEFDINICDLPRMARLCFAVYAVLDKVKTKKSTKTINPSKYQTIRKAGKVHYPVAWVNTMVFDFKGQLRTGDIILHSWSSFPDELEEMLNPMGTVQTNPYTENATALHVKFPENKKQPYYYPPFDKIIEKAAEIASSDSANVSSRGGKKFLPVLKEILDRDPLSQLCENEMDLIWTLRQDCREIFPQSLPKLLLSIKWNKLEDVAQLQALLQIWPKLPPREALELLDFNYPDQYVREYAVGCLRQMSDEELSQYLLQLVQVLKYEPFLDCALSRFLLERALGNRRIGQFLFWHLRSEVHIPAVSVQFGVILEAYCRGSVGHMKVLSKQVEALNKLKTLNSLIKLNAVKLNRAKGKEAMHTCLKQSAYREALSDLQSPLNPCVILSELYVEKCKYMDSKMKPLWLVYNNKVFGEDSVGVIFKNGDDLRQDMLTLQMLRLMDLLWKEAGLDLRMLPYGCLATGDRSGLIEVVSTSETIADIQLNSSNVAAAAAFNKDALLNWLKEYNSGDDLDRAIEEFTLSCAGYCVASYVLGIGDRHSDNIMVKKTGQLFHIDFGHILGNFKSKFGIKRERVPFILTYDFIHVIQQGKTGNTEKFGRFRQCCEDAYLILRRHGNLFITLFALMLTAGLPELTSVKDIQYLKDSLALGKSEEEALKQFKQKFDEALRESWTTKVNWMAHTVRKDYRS
PI3Kβ, sequence (P27986 whole entry partner, species assumed): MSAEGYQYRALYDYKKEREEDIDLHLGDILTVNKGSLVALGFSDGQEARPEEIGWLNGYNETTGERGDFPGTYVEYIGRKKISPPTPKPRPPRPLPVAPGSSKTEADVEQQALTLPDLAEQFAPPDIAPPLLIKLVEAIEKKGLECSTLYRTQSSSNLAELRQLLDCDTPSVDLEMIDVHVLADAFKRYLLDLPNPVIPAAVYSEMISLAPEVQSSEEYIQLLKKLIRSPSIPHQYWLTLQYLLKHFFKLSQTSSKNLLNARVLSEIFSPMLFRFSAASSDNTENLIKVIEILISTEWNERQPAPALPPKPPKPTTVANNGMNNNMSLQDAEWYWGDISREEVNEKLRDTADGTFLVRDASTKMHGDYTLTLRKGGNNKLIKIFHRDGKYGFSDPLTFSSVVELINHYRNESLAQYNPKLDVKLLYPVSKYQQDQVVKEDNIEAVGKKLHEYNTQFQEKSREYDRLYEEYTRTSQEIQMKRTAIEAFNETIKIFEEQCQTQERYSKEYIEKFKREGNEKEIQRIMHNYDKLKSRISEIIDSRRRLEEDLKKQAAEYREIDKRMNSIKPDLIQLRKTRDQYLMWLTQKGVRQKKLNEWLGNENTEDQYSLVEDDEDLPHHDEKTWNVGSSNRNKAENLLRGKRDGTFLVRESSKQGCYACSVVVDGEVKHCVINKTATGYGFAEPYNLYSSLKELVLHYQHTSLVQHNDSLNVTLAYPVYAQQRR
PI3Kγ, sequence (P48736 whole entry, species assumed): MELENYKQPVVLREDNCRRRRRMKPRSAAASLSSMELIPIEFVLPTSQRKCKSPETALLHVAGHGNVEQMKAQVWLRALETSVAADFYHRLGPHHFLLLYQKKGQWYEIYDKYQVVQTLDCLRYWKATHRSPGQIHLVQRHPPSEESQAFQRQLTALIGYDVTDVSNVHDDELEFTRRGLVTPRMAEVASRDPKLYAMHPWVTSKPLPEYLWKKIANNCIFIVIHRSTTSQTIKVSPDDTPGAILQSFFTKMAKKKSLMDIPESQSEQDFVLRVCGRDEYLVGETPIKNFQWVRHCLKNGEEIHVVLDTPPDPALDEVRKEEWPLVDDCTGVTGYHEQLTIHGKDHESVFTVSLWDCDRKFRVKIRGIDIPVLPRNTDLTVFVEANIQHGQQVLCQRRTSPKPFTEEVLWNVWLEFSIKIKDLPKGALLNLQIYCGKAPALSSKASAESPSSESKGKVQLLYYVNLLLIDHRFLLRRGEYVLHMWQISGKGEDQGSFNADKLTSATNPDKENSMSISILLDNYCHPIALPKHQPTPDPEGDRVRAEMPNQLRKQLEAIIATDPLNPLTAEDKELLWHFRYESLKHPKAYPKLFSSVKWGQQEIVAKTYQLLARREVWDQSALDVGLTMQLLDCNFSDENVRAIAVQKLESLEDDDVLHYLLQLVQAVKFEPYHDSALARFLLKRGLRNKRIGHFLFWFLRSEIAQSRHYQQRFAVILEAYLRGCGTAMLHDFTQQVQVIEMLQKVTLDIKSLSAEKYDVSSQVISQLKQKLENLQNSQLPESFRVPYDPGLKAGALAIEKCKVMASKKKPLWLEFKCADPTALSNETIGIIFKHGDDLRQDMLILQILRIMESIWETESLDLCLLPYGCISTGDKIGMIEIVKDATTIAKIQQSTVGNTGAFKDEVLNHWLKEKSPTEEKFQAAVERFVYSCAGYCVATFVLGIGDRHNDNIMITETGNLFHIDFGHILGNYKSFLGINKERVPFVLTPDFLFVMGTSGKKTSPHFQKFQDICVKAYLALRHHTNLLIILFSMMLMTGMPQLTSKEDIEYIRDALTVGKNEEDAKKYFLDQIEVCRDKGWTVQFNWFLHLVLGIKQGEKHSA
PI3Kα, sequence (P42336 whole entry, species assumed): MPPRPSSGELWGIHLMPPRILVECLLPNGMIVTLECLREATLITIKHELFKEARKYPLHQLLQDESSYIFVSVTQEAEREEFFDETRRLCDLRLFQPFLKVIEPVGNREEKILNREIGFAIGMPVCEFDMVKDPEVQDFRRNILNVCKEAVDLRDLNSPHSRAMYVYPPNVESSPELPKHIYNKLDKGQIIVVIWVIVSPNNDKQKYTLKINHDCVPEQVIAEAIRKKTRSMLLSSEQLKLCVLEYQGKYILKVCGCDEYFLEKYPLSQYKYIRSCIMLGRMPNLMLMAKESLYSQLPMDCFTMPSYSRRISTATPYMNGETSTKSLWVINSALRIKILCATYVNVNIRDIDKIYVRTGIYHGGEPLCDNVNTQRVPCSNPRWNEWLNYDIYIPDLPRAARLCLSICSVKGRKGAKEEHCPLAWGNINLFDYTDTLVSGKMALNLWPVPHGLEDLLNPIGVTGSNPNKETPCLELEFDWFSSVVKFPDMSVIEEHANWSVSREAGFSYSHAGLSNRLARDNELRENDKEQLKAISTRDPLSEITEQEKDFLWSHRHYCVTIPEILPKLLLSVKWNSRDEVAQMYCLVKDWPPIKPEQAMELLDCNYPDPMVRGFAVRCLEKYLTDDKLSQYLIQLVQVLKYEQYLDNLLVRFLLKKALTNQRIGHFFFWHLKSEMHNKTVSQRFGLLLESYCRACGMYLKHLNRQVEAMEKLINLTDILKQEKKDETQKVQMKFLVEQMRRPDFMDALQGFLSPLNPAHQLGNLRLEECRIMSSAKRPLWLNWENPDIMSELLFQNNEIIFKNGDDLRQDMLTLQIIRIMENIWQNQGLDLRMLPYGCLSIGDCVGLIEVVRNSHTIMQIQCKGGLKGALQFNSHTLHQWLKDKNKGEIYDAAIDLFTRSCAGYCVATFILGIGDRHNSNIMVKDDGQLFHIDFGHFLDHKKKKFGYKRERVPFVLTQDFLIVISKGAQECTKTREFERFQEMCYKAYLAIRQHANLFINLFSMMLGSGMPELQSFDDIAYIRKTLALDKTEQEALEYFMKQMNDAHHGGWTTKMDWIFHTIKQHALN
PI3Kα, sequence (P27986 whole entry partner, species assumed): as the sequence (P27986 whole entry partner, species assumed) above
PI3Kδ, sequence (O00329 whole entry, species assumed): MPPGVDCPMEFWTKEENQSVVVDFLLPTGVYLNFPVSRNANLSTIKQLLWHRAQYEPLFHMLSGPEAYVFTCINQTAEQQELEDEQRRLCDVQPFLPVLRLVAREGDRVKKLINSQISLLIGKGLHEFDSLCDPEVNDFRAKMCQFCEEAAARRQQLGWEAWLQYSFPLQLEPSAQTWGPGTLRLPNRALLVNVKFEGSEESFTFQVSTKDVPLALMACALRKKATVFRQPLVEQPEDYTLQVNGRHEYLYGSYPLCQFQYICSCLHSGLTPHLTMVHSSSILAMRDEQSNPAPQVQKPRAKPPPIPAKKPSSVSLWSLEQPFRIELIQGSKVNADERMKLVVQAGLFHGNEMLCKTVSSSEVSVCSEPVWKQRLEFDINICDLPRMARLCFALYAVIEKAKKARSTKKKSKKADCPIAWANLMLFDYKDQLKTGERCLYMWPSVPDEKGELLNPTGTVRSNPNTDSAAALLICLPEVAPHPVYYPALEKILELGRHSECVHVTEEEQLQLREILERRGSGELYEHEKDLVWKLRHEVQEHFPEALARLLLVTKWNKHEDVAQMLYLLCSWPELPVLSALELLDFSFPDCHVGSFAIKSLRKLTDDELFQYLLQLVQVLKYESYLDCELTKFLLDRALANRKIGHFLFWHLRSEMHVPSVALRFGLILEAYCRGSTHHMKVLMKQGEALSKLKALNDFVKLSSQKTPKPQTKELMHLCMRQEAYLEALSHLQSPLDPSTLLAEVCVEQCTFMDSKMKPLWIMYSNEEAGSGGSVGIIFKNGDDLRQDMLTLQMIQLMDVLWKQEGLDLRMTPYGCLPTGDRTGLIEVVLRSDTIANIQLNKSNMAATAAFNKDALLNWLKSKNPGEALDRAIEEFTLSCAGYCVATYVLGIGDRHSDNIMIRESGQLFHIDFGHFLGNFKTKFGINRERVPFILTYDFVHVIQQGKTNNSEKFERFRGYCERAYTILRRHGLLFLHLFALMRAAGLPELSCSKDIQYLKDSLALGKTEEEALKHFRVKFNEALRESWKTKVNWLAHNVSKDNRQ
PI3Kδ, sequence (P27986 whole entry partner, species assumed): as the sequence (P27986 whole entry partner, species assumed) above

| SMILES | Ki [1] | Selectivity (β/δ) [2] | Selectivity (α/δ) [3] | Selectivity (γ/δ) [4] | steatosis (accumulation of fat) in hepatocytes [5] | steatosis development [6] |
| --- | --- | --- | --- | --- | --- | --- |
| CC(Nc1ncnc2[nH]cnc12)c1nc2ccsc2c(=O)n1-c1ccccc1 (stereo not drawn) [3e] | 6 nM | 123 | 528 | 28 | – | – |
| O=c1cc(N2CCOCC2)oc2c(-c3ccccc3)cccc12 [LY294002] | – | – | – | – | can be inhibited | blocked steatosis development |
| Cc1cccc2nc(C(C)n3cnc4c(N)ncnc43)n(-c3ccccc3)c(=O)c12 (stereo not drawn) [4a] | 7 nM | 119 | 2963 | 61 | – | – |
| Cc1cccc2nc(C(C)Nc3ncnc4[nH]cnc34)n(-c3ccccc3)c(=O)c12 (stereo not drawn) [4b] | 5 nM | 29 | 132 | 12 | – | – |
| CC(c1nc2ccsc2c(=O)n1-c1ccccc1)n1cnc2c(N)ncnc21 (stereo not drawn) [3d] | 40 nM | 126 | 1447 | 187 | – | – |
